Measurements reported in patent US10925851B2 (Regents of the University of Minnesota, priority 2018, dated 2021).
“And” between values parts separate entries of the source, which are not always exact repeats. Equal entries are not always repeated. “Also recorded” adds a separate entry of the source.

What was measured:
[1] = target: T1, Aminopeptidase N (APN) (Homo sapiens, UniProt P15144); assay: Aminopeptidase N enzyme assay (Ala-AMC substrate, fluorescence); type: biochemical
T1 construct: purchased R&D Systems
T1 sequence (P15144 whole entry): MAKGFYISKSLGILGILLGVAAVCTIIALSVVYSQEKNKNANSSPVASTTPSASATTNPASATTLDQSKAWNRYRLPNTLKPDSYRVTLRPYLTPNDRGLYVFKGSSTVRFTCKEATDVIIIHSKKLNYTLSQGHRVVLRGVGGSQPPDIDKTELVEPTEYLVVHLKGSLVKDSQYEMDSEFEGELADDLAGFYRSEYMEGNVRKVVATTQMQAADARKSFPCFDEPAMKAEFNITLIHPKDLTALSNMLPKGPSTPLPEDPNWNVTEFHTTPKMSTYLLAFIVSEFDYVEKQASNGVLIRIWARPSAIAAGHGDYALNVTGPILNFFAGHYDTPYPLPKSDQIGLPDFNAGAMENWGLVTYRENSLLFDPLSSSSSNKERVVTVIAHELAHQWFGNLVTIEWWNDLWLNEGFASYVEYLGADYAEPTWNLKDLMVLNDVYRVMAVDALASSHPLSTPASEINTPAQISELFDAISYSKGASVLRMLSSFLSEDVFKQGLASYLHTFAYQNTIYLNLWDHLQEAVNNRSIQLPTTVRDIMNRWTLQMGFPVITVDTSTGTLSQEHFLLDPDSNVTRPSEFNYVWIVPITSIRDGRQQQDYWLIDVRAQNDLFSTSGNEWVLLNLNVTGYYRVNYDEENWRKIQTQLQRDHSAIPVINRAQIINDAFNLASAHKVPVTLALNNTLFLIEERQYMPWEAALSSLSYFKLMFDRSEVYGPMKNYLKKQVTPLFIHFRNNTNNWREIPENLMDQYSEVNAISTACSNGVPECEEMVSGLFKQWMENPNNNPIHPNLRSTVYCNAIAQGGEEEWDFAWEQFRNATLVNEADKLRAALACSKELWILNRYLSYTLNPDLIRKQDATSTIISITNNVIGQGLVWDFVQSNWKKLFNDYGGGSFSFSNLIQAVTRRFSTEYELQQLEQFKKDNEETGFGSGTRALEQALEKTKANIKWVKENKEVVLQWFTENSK
Protocol: Single concentration studies at 10 μM: Aminopeptidase N assays were performed as described previously. Aminopeptidase N was purchased from R&D Systems. Amino-4-methylcoumarin (Ala-AMC) was purchased from Bachem. Briefly, 0.1 μg/μL APN was incubated with 1 μL of 1 mM inhibitor in 50 mM Tris buffer, pH 7.5, in 100 μL volume in a black 384-well plate in duplicate. The reaction was started with the addition of Ala-AMC substrate at a final concentration of 100 μM. The cleavage accumulation AMC was measured by exciting at 380 nm and reading the fluorescence at 460 nm on a Molecular Devices SpectraMax i3 plate reader for 20 min at room temperature. Percent inhibition is calculated in GraphPad Prism software using slopes in the linear range for each inhibitor at 10 μM.
Dose-Response Studies for APN: Aminopeptidase N enzyme assays were performed as described previously.^26 Briefly, 0.1 μg/μL APN was incubated with 1 μL inhibitor in 50 mM Tris buffer, pH 7.5, in 50 μL volume in a black 384-well plate in duplicate. Compounds were tested at 3× dilutions from 100 μM final concentration. The reaction was started with the addition of Ala-AMC substrate at a final concentration of 100 μM. The accumulation of AMC was measured by exciting at 380 nm and reading the fluorescence at 460 nm on a Molecular Devices SpectraMax i3 plate reader for 30 min at room temperature. Steady state velocities were used to determine IC50 values by fitting the velocities vs. inhibitor concentration to the sigmoidal concentration-response curve (variable slope) using GraphPad Prism.

[2] = system: male CF-1 mice; assay: Tail-flick assay (acute thermal pain); type: in vivo; conditions: i.c.v. 100 μg per mouse, 15-90 min
Protocol: The Tail-Flick test comprises of acute nociception in which the tail of the test animal is thermally stimulated. The time it takes for the animal to either flick or withdraw its tail is recorded as a measure of the response to the thermal stimuli. For this test, mice were gently restrained in a cloth; the tail-flick beam was centered on the dorsal surface of the tail (about 15 mm from the end of the tail). The heat source was activated, and the latency for withdrawal of the tail was recorded. The intensity of the tail-flick beam was adjusted so that the average withdrawal time of the baseline measurement was 2 to 4 sec. For each animal, a baseline response latency was determined in two consecutive responses measured at 5 minute intervals. Animals were tested at 15, 30, 45, 60, 75, and 90 minutes after drug administration.
While hot-plate method is more sensitive at supraspinal level, the tail-flick method mostly embodies a spinal reflex response to noxious stimuli. […] The time it takes for the animal to either flick or withdraw its tail is recorded as a measure of the response to the stimuli. […]
Columbus Instruments tail-flick analgesiometer was employed for this experiment. […] The heat source was activated, and the latency for withdrawal of the tail recorded. […] For each animal, a baseline response latency was determined in two consecutive responses measured at 5 min intervals. […]

[3] = Distribution of tosedostat in brain and plasma (LC-MS/MS); type: in vivo, mouse; conditions: 10 mg/Kg i.p., over 4 hours
Protocol: The subjects were intraperitoneally injected with ketamine-xylazine cocktail (100 mg/kg ketamine+10 mg/kg xylazine) 2 minutes prior to the time-point being analyzed. Specifically, samples were collected at 0.25, 0.5, 1, 2, and 4 hours after the drug administration. […] Samples were immediately centrifuged at 3000×rpm for 10 minutes at 4° C. and the separated top plasma layer was transferred into a new tube. Blood samples stored at −80° C. until LC-MS/MS analysis. For brain samples, brain tissue was extracted from the animal and washed with copious volumes of ice-cold D-PBS for removal of blood from the sample. and Collect brain and wash the brain with ice-cold DPBS properly to remove blood. The sample was then gently wiped with absorbent paper, weighed, and transferred into a 15 mL tube. The brain samples were homogenized by adding 1:5 (w/v) of ice-cold D-PBS into the tube and using mechanical homogenizer on them. Homogenized brain samples were also stored at −80° C.
LC-MS/MS analysis: Frozen plasma and brain homogenate samples were thawed and rapidly quenched as detailed here. For plasma samples, 30 μL of DMSO and 60 μL of acetonitrile containing 0.1% formic acid were added to 30 μL of each unknown thawed plasma sample. For brain homogenate samples, 10 μL of DMSO and 60 μL of acetonitrile containing 0.1% formic acid were added to 30 μL of each unknown sample. […]

[4] = system: mice; assay: Co-administration of opioid antagonist naloxone in hot-plate and tail-flick assays; type: in vivo, mouse
Protocol: Naloxone dissolved in saline was either administered subcutaneously (s.c.; dosage: 5 mg/Kg) via an injection to the interscapular skin, or it was given intracerebroventricularly (5 μg per mouse).
Naloxone is a broad-spectrum opioid receptor antagonist. It is known to interact with, mu- (μ-), delta- (δ-), and kappa- (κ-) opioid receptors, with highest affinity for the μ receptors. […] Naloxone dissolved in saline was delivered subcutaneously (s.c.) via an injection to the interscapular skin.
5 mg/Kg naloxone dissolved in saline was administered subcutaneously (s.c.) via an injection to the interscapular skin. Analgesic efficacy for various time-points was determined in hot-plate and tail-flick assays as detailed above.

[5] = system: male CF1 mice; assay: Hot-plate test (acute thermal pain)
Protocol: The hot plate was the top surface of an enclosed cylindrical glass bath through which thermostatically controlled hot water was circulated. Under the conditions used, the temperature of the surface of the cylinder was maintained at 55° C. […] Reaction times were also determined twice for each mouse at 15-min intervals half an hour before injecting the drug to establish a baseline reaction time control value. Mice having a mean reaction time greater than 13 seconds were excluded as non-responders.
In this transient pain model, a thermal analgesiometer hot-plate was utilized for the determination of antinociceptive potency of test compounds against acute thermal stimulus. Mice were administered compounds via intraperitoneal (i.p.) or intracerebroventricular (i.c.v.) routes. […] The results are expressed as a percent of the maximum possible effect (% MPE) according to the equation: % MPE=[(Post-drug latency−Pre-drug latency)/(Cutoff−Pre-drug latency)]×100.
The hot-plate was the top surface of an enclosed cylindrical glass bath through which thermostatically controlled hot water was circulated. Under the conditions used, the temperature of the surface of the cylinder was maintained at 55° C. […] Test compounds were administered via intraperitoneal (i.p.) or intracerebroventricular (i.c.v.) routes. […] Animals with a mean reaction time greater than 13 seconds were excluded as non-responders.

CC(C)C[C@@H](C(=O)N[C@H](C(=O)OC1CCCC1)c1ccccc1)[C@H](O)C(=O)NO [Tosedostat]
activity against APN (in words) [1]: micromolar activity against APN | IC50 ([1]; dose response, 3x dilutions from 100 μM): 930 nM and 933 nM | inhibition at 10 µM ([1]; inhibitor 10 μM, read-out: APN @ 10 μM (percent inhibition)): 83% | analgesic effect [2]: does not impart analgesic effect; also recorded: does not prompt a potent analgesic effect; also recorded: ineffective in furnishing an antinociceptive response | presence in brain homogenate compared to plasma samples [3]: minimal presence of tosedostat in the brain homogenate samples | effect of centrally administered naloxone on analgesic response of tosedostat ([4]; tosedostat 58.1 mg/Kg i.p. + naloxone 5 μg per mouse i.c.v.): no attenuation of analgesic response | effect of subcutaneous naloxone on analgesic action of tosedostat ([4]; tosedostat 58.1 mg/Kg i.p. + naloxone 5 mg/Kg s.c.): partially blocked the analgesic action | analgesic effect (% MPE time course) ([5]; i.c.v. 100 μg per mouse, 15-90 min post injection): did not show analgesic effect; also recorded: nominal analgesic effect; also recorded: did not register substantial analgesic outcome; also recorded: ineffective in furnishing an antinociceptive response | analgesic effect, single time-point ([5]; i.c.v. 100 μg per mouse, 15 minutes after injection): nominal analgesic effect | analgesic response in hot-plate compared to tail-flick experiments ([5]; i.p., over the course of 90 minutes): about two-fold better analgesic response
